Laboratory results reported in the supplement of paper PMC10307832.

Tests used:
Experiment in all cases: relative viability (nuclei count vs DMSO), 5 days (fraction); higher = more cells survive
Fedratinib + Pemetrexed = compound: Cc1cnc(Nc2ccc(OCCN3CCCC3)cc2)nc1Nc1cccc(S(=O)(=O)NC(C)(C)C)c1 [Fedratinib] + Nc1nc2[nH]cc(CCc3ccc(C(=O)N[C@@H](CCC(=O)O)C(=O)O)cc3)c2c(=O)[nH]1 [Pemetrexed] (partner 0.2 µM)
Outline: (§1)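 Relative viability was taken as the ratio of nuclei in treated wells to nuclei in vehicle wells. Lung cancer cell lines in 1536-well plates received compounds by pin tool one day after seeding, either one drug alone or a fixed anchor-drug dose plus five library-drug doses (not always all listed) in √10 steps. Nuclei were counted on 4× images after 5 days of treatment, and values are medians of duplicate plates.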

GW-2580 + Navitoclax = compound: COC1=CC=C(C=C1)COC2=C(C=C(C=C2)CC3=CN=C(N=C3N)N)OC [GW-2580] + CC1(C)CCC(c2ccc(Cl)cc2)=C(CN2CCN(c3ccc(C(=O)NS(=O)(=O)c4ccc(N[C@H](CCN5CCOCC5)CSc5ccccc5)c(S(=O)(=O)C(F)(F)F)c4)cc3)CC2)C1 [Navitoclax] (partner 0.5 µM)
Outline: as §1

GW-2580 + Phenformin = compound: COC1=CC=C(C=C1)COC2=C(C=C(C=C2)CC3=CN=C(N=C3N)N)OC [GW-2580] + N=C(N)NC(=N)NCCc1ccccc1 [Phenformin] (partner 250 µM)
Outline: as §1

GW-2580 + Alpelisib = compound: COC1=CC=C(C=C1)COC2=C(C=C(C=C2)CC3=CN=C(N=C3N)N)OC [GW-2580] + Cc1nc(NC(=O)N2CCC[C@H]2C(N)=O)sc1-c1ccnc(C(C)(C)C(F)(F)F)c1 [Alpelisib] (partner 2 µM)
Outline: as §1

Fedratinib + Alpelisib = compound: Cc1cnc(Nc2ccc(OCCN3CCCC3)cc2)nc1Nc1cccc(S(=O)(=O)NC(C)(C)C)c1 [Fedratinib] + Cc1nc(NC(=O)N2CCC[C@H]2C(N)=O)sc1-c1ccnc(C(C)(C)C(F)(F)F)c1 [Alpelisib] (partner 2 µM)
Outline: as §1

Cell Line: UMC-11
- relative viability (Fedratinib + Pemetrexed; first compound 0.1 µM): 0.756
- relative viability (Fedratinib + Pemetrexed; first compound 0.3162 µM): 0.66
- relative viability (Fedratinib + Pemetrexed; first compound 1 µM): 0.665
- relative viability (GW-2580 + Navitoclax; first compound 0.08 µM): 0.309
- relative viability (GW-2580 + Navitoclax; first compound 0.8 µM): 0.342
- relative viability (GW-2580 + Navitoclax; first compound 2.53 µM): 0.291
- relative viability (GW-2580 + Navitoclax; first compound 8 µM): 0.324
- relative viability (GW-2580 + Phenformin; first compound 0.08 µM): 0.349
- relative viability (GW-2580 + Phenformin; first compound 0.8 µM): 0.311
- relative viability (GW-2580 + Phenformin; first compound 2.53 µM): 0.388
- relative viability (GW-2580 + Phenformin; first compound 8 µM): 0.343
- relative viability (GW-2580 + Alpelisib; first compound 0.08 µM): 0.959
- relative viability (GW-2580 + Alpelisib; first compound 0.8 µM): 1.07
- relative viability (GW-2580 + Alpelisib; first compound 2.53 µM): 1.11
- relative viability (GW-2580 + Alpelisib; first compound 8 µM): 1.21
- relative viability (Fedratinib + Alpelisib; first compound 0.1 µM): 0.985
- relative viability (Fedratinib + Alpelisib; first compound 0.3162 µM): 0.876
- relative viability (Fedratinib + Alpelisib; first compound 1 µM): 0.95
